Source: BindingDB's records for doi:10.1021/jm100394y (Amgen, 2010)

Test: Inhibition of aurora B in human HeLa cells assessed as increase of >= 4N DNA level after 24 hrs by Hoechst staining

SMILES	EC50 [nM]
CNc1nccc(-c2cccnc2Oc2ccc(NC(=O)c3cccc(Cl)c3)cc2C)n1 [3-Chloro-N-(3-methyl-4-(3-(2-(methylamino)pyrimidin-4-yl)-pyridin-2-yloxy)phenyl)benzamide]	> 1200
CNc1nccc(-c2cccnc2Oc2ccc(Nc3nnc(-c4ccc(F)cc4)c4ccccc34)cc2)n1 [4-(4-Fluorophenyl)-N-(4-(3-(2-(methylamino)pyrimidin-4-yl)-pyridin-2-yloxy)phenyl)phthalazin-1-amine]	24
CNc1nccc(-c2cccnc2Oc2ccc(NC(=O)c3ccc(Cl)cc3)cc2C)n1 [4-Chloro-N-(3-methyl-4-(3-(2-(methylamino)pyrimidin-4-yl)-pyridin-2-yloxy)phenyl)benzamide]	> 1200
CNc1nccc(-c2cccnc2Oc2ccc(NC(=O)c3ccccc3Oc3ccccc3)cc2C)n1 [N-(3-Methyl-4-(3-(2-(methylamino)pyrimidin-4-yl)pyridin-2-yloxy)phenyl)-2-phenoxybenzamide]	> 1200
CNc1nccc(-c2cccnc2Oc2ccc(NC(=O)c3cccc(C(F)(F)F)c3)cc2C)n1 [N-(3-Methyl-4-(3-(2-(methylamino)pyrimidin-4-yl)pyridin-2-yloxy)phenyl)-3-(trifluoromethyl)benzamide]	> 1200
CNc1nccc(-c2cccnc2Oc2ccc(NC(=O)c3cccc(Oc4ccccc4)c3)cc2C)n1 [N-(3-Methyl-4-(3-(2-(methylamino)pyrimidin-4-yl)pyridin-2-yloxy)phenyl)-3-phenoxybenzamide]	> 1200
CNc1nccc(-c2cccnc2Oc2ccc(Nc3nnc(-c4ccccc4)c4ccccc34)cc2)n1 [N-(4-(3-(2-(Methylamino)pyrimidin-4-yl)pyridin-2-yloxy)phenyl)-4-phenylphthalazin-1-amine]	15

Continued, values first:

EC50 [nM]	SMILES
28	CNc1nccc(-c2cccnc2Oc2ccc(NC(=O)c3ccccc3Nc3ccc(F)cc3)cc2)n1 [2-(4-Fluorophenylamino)-N-(4-(3-(2-(methylamino)pyrimidin-4-yl)pyridin-2-yloxy)phenyl)benzamide]
20	CNc1nccc(-c2cccnc2Oc2ccc(NC(=O)c3cc(F)ccc3Nc3ccccc3)cc2)n1 [5-Fluoro-N-(4-(3-(2-(methylamino)pyrimidin-4-yl)pyridin-2-yloxy)phenyl)-2-(phenylamino)benzamide]
1450	CNc1nccc(-c2cccnc2Oc2ccc(NC(=O)c3ccccc3Nc3ccccc3)c(C)c2)n1 [N-(2-Methyl-4-(3-(2-(methylamino)pyrimidin-4-yl)pyridin-2-yloxy)phenyl)-2-(phenylamino)benzamide]
89	CNc1nccc(-c2cccnc2Oc2ccc(NC(=O)c3ccccc3Nc3ccccc3)cc2C)n1 [N-(3-Methyl-4-(3-(2-(methylamino)pyrimidin-4-yl)pyridin-2-yloxy)phenyl)-2-(phenylamino)benzamide]
15	CNc1nccc(-c2cccnc2Oc2ccc(NC(=O)c3ccccc3Nc3ccccc3)cc2)n1 [N-(4-(3-(2-(Methylamino)pyrimidin-4-yl)pyridin-2-yloxy)phenyl)-2-(phenylamino)benzamide]
